Experimental data: the NIST ThermoML archive (doi:10.1021/je900404r)

Assays:
[1] = 101 kPa, Liquid, Vibrating tube method
[2] = xn = mol fraction of the nth substance listed; settings: 101 kPa, Liquid, Vibrating tube method

ClCCCCCl [1,4-dichlorobutane]
[1]
Settings	mass density [kg/m3]
288.15 K	1143.49
298.15 K	1132.57
308.15 K	1121.61
318.15 K	1110.61

ClCCCCCl [1,4-dichlorobutane] + O=C1CCCCC1
mass density [kg/m3], [2]
Settings	x1 = 0.1063	x1 = 0.1969	x1 = 0.2901	x1 = 0.3808	x1 = 0.4803	x1 = 0.5814	x1 = 0.6763	x1 = 0.7751	x1 = 0.8849	x1 = 1
288.15 K	973.11	991.09	1009.39	1027.04	1046.24	1065.55	1083.46	1101.96	1122.33	1143.49
298.15 K	964	981.82	999.94	1017.42	1036.41	1055.52	1073.23	1091.52	1111.66	1132.57
308.15 K	954.86	972.51	990.46	1007.76	1026.55	1045.46	1062.97	1081.05	1100.96	1121.61
318.15 K	945.69	963.17	980.95	998.07	1016.66	1035.37	1052.68	1070.54	1090.21	1110.61

CCCCCl [1-chlorobutane]
[1]
Settings	mass density [kg/m3]
288.15 K	892.1
298.15 K	881.05
308.15 K	869.86
318.15 K	858.52

CCCCCl [1-chlorobutane] + O=C1CCCCC1
mass density [kg/m3], [2]
Settings	x1 = 0.1152	x1 = 0.2084	x1 = 0.3068	x1 = 0.4067	x1 = 0.5041	x1 = 0.5841	x1 = 0.692	x1 = 0.7881	x1 = 0.882	x1 = 1
288.15 K	945.58	940.43	934.95	929.27	923.6	918.86	912.28	906.18	900.11	892.1
298.15 K	936.47	931.18	925.51	919.65	913.78	908.86	902.02	895.71	889.37	881.05
308.15 K	927.34	921.88	916.03	909.97	903.89	898.78	891.68	885.12	878.54	869.86
318.15 K	918.17	912.54	906.5	900.22	893.92	888.63	881.25	874.42	867.57	858.52
